In one assay the test system is A549. Put plainly: Cytotoxicity against human A549 cells after 48 hrs by sulforhodamine B assay. Format: functional, cell-based. Particulars: A549, 48 h. (In general: Sulforhodamine B stains cellular protein and so reports cell mass.)
Assay [1] can be described thus: Cell cycle arrest in human DU145 cells assessed as accumulation at G0/G1 phase at 25 uM after 48 hrs by propidium iodide staining based flow cytometry (reference value: 61.28%). The class given is functional. Conditions: DU-145. (In general: In flow cytometry, cells or beads pass a laser one at a time.)
Assay [2] is described as follows: Cell cycle arrest in human DU145 cells assessed as accumulation at sub G1 phase at 10 uM after 48 hrs by propidium iodide staining based flow cytometry (reference value: 2.30%). Conditions: DU-145. The class given is functional.
Another assay deals with HeLa. The assay can be described thus: Cytotoxicity against human HeLa cells after 48 hrs by sulforhodamine B assay. Format: functional, cell-based.
A short description of assay [3]: Cell cycle arrest in human DU145 cells assessed as accumulation at sub G1 phase at 15 uM after 48 hrs by propidium iodide staining based flow cytometry (reference value: 2.30%). Conditions: DU-145. The class given is functional.
Assay [4] is described as follows: Cell cycle arrest in human DU145 cells assessed as accumulation at sub G1 phase at 5 uM after 48 hrs by propidium iodide staining based flow cytometry (reference value: 2.30%). Conditions: DU-145. The class given is functional.
In assay [5] the test system is DU-145. Put plainly: Induction of apoptosis in human DU145 cells assessed as activation of caspase 9 using […] as substrate preincubated for 48 hrs followed by substrate addition measured after 2 hrs by fluorescence analysis. The class given is functional, cell-based.
Assay [6] concerns DU-145. Put plainly: Inhibition of Akt phosphorylation in human DU145 cells after 48 hrs by Western blot analysis. The class given is cell-based. On the technique in general: Immunoblotting shows a protein as a band on a membrane.
The nature of assay [7]: Cell cycle arrest in human DU145 cells assessed as accumulation at S phase at 5 uM after 48 hrs by propidium iodide staining based flow cytometry (reference value: 8.62%). Particulars: DU-145. The class given is functional.
The nature of assay [8]: Cell cycle arrest in human DU145 cells assessed as accumulation at G0/G1 phase at 10 uM after 48 hrs by propidium iodide staining based flow cytometry (reference value: 61.28%). The class given is functional. Particulars: DU-145.
Assay [9] concerns DU-145. Put plainly: Induction of apoptosis in human DU145 cells assessed as activation of caspase 8 using Ac-VETD-AMC as substrate preincubated for 48 hrs followed by substrate addition measured after 2 hrs by fluorescence analysis. The class given is functional, cell-based.
Assay [10] is described as follows: Cell cycle arrest in human DU145 cells assessed as accumulation at S phase at 20 uM after 48 hrs by propidium iodide staining based flow cytometry (reference value: 8.62%). Conditions: DU-145. The class given is functional.
Assay [11] can be described thus: Cell cycle arrest in human DU145 cells assessed as accumulation at G2/M phase at 5 uM after 48 hrs by propidium iodide staining based flow cytometry (reference value: 15.81%). The class given is functional. Particulars: DU-145.
A short description of assay [12]: Cell cycle arrest in human DU145 cells assessed as accumulation at G0/G1 phase at 20 uM after 48 hrs by propidium iodide staining based flow cytometry (reference value: 61.28%). Format: functional. Conditions: DU-145.
Assay [13] is described as follows: Cell cycle arrest in human DU145 cells assessed as accumulation at S phase at 10 uM after 48 hrs by propidium iodide staining based flow cytometry (reference value: 8.62%). Format: functional. Conditions: DU-145.
Assay [14] in a line: Cell cycle arrest in human DU145 cells assessed as accumulation at G0/G1 phase at 5 uM after 48 hrs by propidium iodide staining based flow cytometry (reference value: 61.28%). Format: functional. Conditions: DU-145.
The nature of assay [15]: Cell cycle arrest in human DU145 cells assessed as accumulation at G2/M phase at 25 uM after 48 hrs by propidium iodide staining based flow cytometry (reference value: 15.81%). Particulars: DU-145. The class given is functional.
Assay [16] can be described thus: Cell cycle arrest in human DU145 cells assessed as accumulation at G2/M phase at 10 uM after 48 hrs by propidium iodide staining based flow cytometry (reference value: 15.81%). Format: functional. Conditions: DU-145.
Assay [17] in a line: Cell cycle arrest in human DU145 cells assessed as accumulation at G2/M phase at 20 uM after 48 hrs by propidium iodide staining based flow cytometry (reference value: 15.81%). Format: functional. Conditions: DU-145.
Assay [18] can be described thus: Cytotoxicity against human DU145 cells after 48 hrs by sulforhodamine B assay. The class given is functional, cell-based. Particulars: DU-145, 48 h.
For another assay, the system named is MCF7. Put plainly: Cytotoxicity against human MCF7 cells after 48 hrs by sulforhodamine B assay. Format: functional, cell-based. Conditions: MCF7, 48 h.
For assay [19], the system named is DU-145. The assay can be described thus: Inhibition of colony formation in human DU145 cells after 9 days by crystal violet staining based microscopic analysis. The class given is functional, cell-based.
Assay [20] concerns DU-145. Put plainly: Inhibition of Akt in human DU145 cells assessed as increase in p27Kip1 levels after 48 hrs by Western blot analysis. The class given is cell-based.
Assay [21] can be described thus: Cytotoxicity against mouse NIH/3T3 cells after 48 hrs by sulforhodamine B assay. Particulars: NIH3T3, 48 h.
Assay [22] in a line: Cell cycle arrest in human DU145 cells assessed as accumulation at sub G1 phase at 25 uM after 48 hrs by propidium iodide staining based flow cytometry (reference value: 2.30%). Particulars: DU-145. Format: functional.
Assay [23] is described as follows: Cell cycle arrest in human DU145 cells assessed as accumulation at sub G1 phase at 20 uM after 48 hrs by propidium iodide staining based flow cytometry (reference value: 2.30%). Format: functional. Conditions: DU-145.
A short description of assay [24]: Cell cycle arrest in human DU145 cells assessed as accumulation at G2/M phase at 15 uM after 48 hrs by propidium iodide staining based flow cytometry (reference value: 15.81%). Format: functional. Conditions: DU-145.
Assay [25] has as its system DU-145. Put plainly: Induction of apoptosis in human DU145 cells assessed as activation of caspase 3 using Ac-DEVD AMC as substrate at 5 to 25 uM preincubated for 48 hrs followed by substrate addition measured after 2 hrs by fluorescence analysis. Format: functional, cell-based.
Assay [26] concerns DU-145. The assay can be described thus: Induction of morphological changes in human DU145 cells after 48 hrs by microscopic analysis. Format: functional, cell-based.
The nature of assay [27]: Cell cycle arrest in human DU145 cells assessed as accumulation at S phase at 25 uM after 48 hrs by propidium iodide staining based flow cytometry (reference value: 8.62%). The class given is functional. Conditions: DU-145.
Assay [28] in a line: Cell cycle arrest in human DU145 cells assessed as accumulation at S phase at 15 uM after 48 hrs by propidium iodide staining based flow cytometry (reference value: 8.62%). Format: functional. Conditions: DU-145.
Assay [29] can be described thus: Cell cycle arrest in human DU145 cells assessed as accumulation at G0/G1 phase at 15 uM after 48 hrs by propidium iodide staining based flow cytometry (reference value: 61.28%). Format: functional. Particulars: DU-145.

The structures appear in SMILES notation. Active and inactive are the calls of the source. The rule behind the calls is not given here. Bounds are passed on as bounds.

In general, IC50 refers to the midpoint of a concentration-inhibition curve. High values mean lower potency, low ones higher potency.

Regarding `CC(=O)OC[C@H]1O[C@@H](n2cc(CN3C(=O)/C(=C/c4ccc(C)cc4)c4ccccc43)nn2)[C@H](OC(C)=O)[C@@H](OC(C)=O)[C@@H]1OC(C)=O`, the IC50 was 16 µM in the assay on A549; 85.6 µM in the assay on HeLa; 9.3 µM in assay [18]; over 100 µM with MCF7; 73.3 µM in assay [21]. Besides, the Activity in assay [1] was 41.4%; in assay [2], 14.4%; in assay [3], 17.2%; in assay [4] it was 7.12%; in the assay with DU-145 [5], “Dose-dependent effect”; in assay [7], 6.85%. For the same compound, the Activity in assay [8] was 48.1%; with DU-145 [9] it was “Dose-dependent effect”; in [10] it was 5.72%; in assay [11], 12.6%; in [12], 40.5%; in [13], 7.56%. Moreover, the Activity turned out to be 59.1% in assay [14]; 9.05% in assay [15]; 16.7% in assay [16]; 10.9% in assay [17]; 37.5% in assay [22]; 34.3% in assay [23]. Also, the Activity is 14.9% in assay [24]; “Dose-dependent effect” in the assay on DU-145 [26]; 4.86% in [27]; 7.64% in assay [28]; 46.6% in assay [29]. Also, the inhibition entry in the assay with DU-145 [6] is “Active”. The inhibition entry in the assay on DU-145 [19] and with DU-145 [20] was “Dose-dependent effect” in each case. For the same compound, in the assay with DU-145 [25], the outcome was Active.

In the case of `CC(=O)OC[C@H]1O[C@@H](n2cc(Cn3cc(/C=C/C(=O)c4ccccc4)c4ccccc43)nn2)[C@H](OC(C)=O)[C@@H](OC(C)=O)[C@@H]1OC(C)=O`, the concentration for half-maximal inhibition (IC50) in the assay with A549 is 16.3 µM; in the assay with HeLa, 33 µM; in assay [18] it was 14.4 µM; in the assay with MCF7 it was 23.9 µM; in assay [21] it was over 200 µM. Besides, the Activity in assay [1] was 12%; in assay [2], 43.7%; in [3] it was 54%; in assay [4] it was 4.53%; with DU-145 [5], “Dose-dependent effect”; in assay [7], 4.72%. Besides, the Activity in assay [8] was 21.2%; in the assay with DU-145 [9], “Dose-dependent effect”; in assay [10], 1.34%; in assay [11], 8.22%; in assay [12], 12.9%; in assay [13] it was 4.41%. For the same compound, the Activity in assay [14] was found to be 75%; in assay [15], 1.01%; in assay [16] it was 16.2%; in assay [17] it was 1.87%; in assay [22] it was 84.1%; in assay [23] it was 82.4%. The Activity in [24] was 11.9%; with DU-145 [26], “Dose-dependent effect”; in assay [27], 0.8%; in assay [28], 3.82%; in assay [29], 21.5%. Besides, the inhibition entry in the assay with DU-145 [6] was “Active”. The inhibition result in the assay on DU-145 [19] and with DU-145 [20] was “Dose-dependent effect” in each case. Also, the outcome in the assay on DU-145 [25] was Active.

As to `CC(=O)OC[C@H]1O[C@@H](n2cc(CN3C(=O)/C(=C\c4ccc(C)cc4)c4ccccc43)nn2)[C@H](OC(C)=O)[C@@H](OC(C)=O)[C@@H]1OC(C)=O`, the IC50 in the assay on A549 was 16.5 µM; with HeLa, over 100 µM; in assay [18], 9.4 µM; in the assay on MCF7, over 100 µM; in assay [21] it was 9 µM.

In the case of `CC(=O)OC[C@H]1O[C@@H](n2cc(Cn3cc(/C=C/C(=O)c4cccnc4)c4ccccc43)nn2)[C@H](OC(C)=O)[C@@H](OC(C)=O)[C@@H]1OC(C)=O`, the IC50 in the assay with A549 was 39.8 µM; in the assay with HeLa it was over 200 µM; in assay [18] it was 29 µM; in the assay with MCF7, 22.3 µM; in assay [21], over 200 µM.

The values above are taken from ChEMBL document CHEMBL3797105, “Investigation of triazole-linked indole and oxindole glycoconjugates as potential anticancer agents: novel Akt/PKB signaling pathway inhibitors” (Medchemcomm, 2016).
